Measured values reported in patent US5866570A, “Treatment of vascular leakage and related syndrome such as septic shock by administration of metalloproteinase inhibitors” (Wisconsin Alumni Research Foundation, priority 1994, dated 1999).
Values belong to the compound of their own block, whether it stands above or below them.

Columns and labels:
[1] = system: HT-1080 cells (human fibrosarcoma); experiment: in vitro invasion assay through matrigel (Transwell); type: cell-based
Method: (§1) Razoxane, various bis(hydroxylated)(2,6-dioxopiperazine)s, and various hydrophobic analogs were tested in an in vitro assay for inhibition of tumor cell penetration of a reconstituted basement membrane, matrigel, isolated from the Englegbreth-Holm-Swarm (EHS) tumor (disclosed in Kleinman et al., Biochem. (1982), 24, 6188-6193) first described by Albini et al, Cancer Res. (1987) 47, 3234-3245. An 8 μm pore filter coated with matrigel separates a lower compartment containing a chemoattractant and an upper compartment containing the cells and test compound. In particular, the following compounds were tested: razoxane, (1α, 2α, 4α, 5α)-4,4'-(4,5-dihydroxy-1,2-cyclohexanediyl)bis(2,6-piperazinedione); (1α, 2α, 4β, 5β)-4,4'-(4,5-dihydroxy-1,2-cyclohexanediyl)bis(2,6-piperazinedione);(1β, 2α,4α,5α)-4,4'-(4,5-dihydroxy-1,2-cyclohexanediyl)bis(2,6-piperazinedione); (1β, 2α, 4α,5β)-4,4'-(4,5-dihydroxy-1,2-cyclohexanediyl)bis(2,6piperazinedione); (1α, 2β, 4α,5β)-4,4'-(4,5-dihydroxy-1,2cyclohexanediyl)bis(2,6-piperazinedione); N,N'-cyclohexane-1,2-diylbis[N(2-ethoxy-2-oxoethyl)]glycine; N,N'-4-cyclohexene-1,2-diylbis[N-(2-ethoxy-2-oxoethyl)-glycine ester; (3aα, 5β, 6β, 7aα)-4,4'-(hexahydro-2,2-dimethyl1,3-benzodioxole-5,6-diyl)bis(2,6-piperazinedione); (3aα, 5α, 6α, 7aα)-4,4'-(hexahydro-2,2-dimethyl-1,3-benzodioxole-5,6-diyl)bis(2,6- piperazinedione); (3aα, 5α, 6β, 7aα)-4,4'-(hexahydro-2,2-dimethyl-1,3-benzodioxole-5,6-diyl)bis-2,6- piperazinedione; (3aα, 5β, 6α, 7aβ)-4,4'-(hexahydro-2,2dimethyl-1,3-benzodioxole-5,6-diyl)bis(2,6-piperazinedione); and (3aα, 5α, 6β, 7aβ)-4,4'-(hexahydro-2,2-dimethyl-1,3-benzodioxole-5,6-diyl) bis(2,6piperazinedione). Metastatic cells are able to degrade the basement membrane protein barrier and migrate through the pores of the filter whereas non-metastatic cells remain on the upper surface. The cells that pass to the under side of the filter are then counted under a microscope. […] Variations of this assay have been used to correlate this in vitro invasion with metastatic potential in vivo (Albini et al. (Id.); Hendrix et al. Cancer Letters (1987); 38, 127-247; Repesh L. A., Invasion Metastasis (1989) 9, 192-208 to select for more highly invasive cells (Teranova et al., Proc. Nat. Acad. Sci., (1986), 83, 465, 464; Tullberg et al., Invasion Metastasis, (1989), 9, 13-26; Sefer et al., Biotechniques, (1990), 9, 324-331), and to test compounds for inhibition (Nakajima et al., Cancer Res. (1989), 49, 1698-1756).
(§2) This method has been improved to increase the number of assays which may be performed and analyzed per day. In particular, such improvement comprises the use of disposable Transwells (Costar) units described by Repesh et al., Invasion Metastasis, (1989), 9, 192-208, which consist of an 8 μm pore filter attached to an insert that fits in a 24 well culture plate. Matrigel concentration is titrated from zero to complete inhibition of motility of each invasive cell line used in the assay and for each batch of matrigel. The matrigel concentration which yields 50% or greater inhibition of motility in a 6 hr assay (usually from 15 to 50 μg of protein per filter) is chosen for determination of invasion. Motility of cells through the 8 μm filters is not by passive diffusion since the pore size is smaller than the cells, and is determined in the same chamber in the absence of matrigel. Motility is stimulated two-fold by the presence of fibroblast conditioned medium (3T3 cells) as a chemoattractant (data not shown). The cell lines used are HT-1080, a human fibrosarcoma, and MDA-MB-231, a human breast carcinoma (both available from the American Type Tissue Culture). These cell lines express both the 72 kD and the 92 kD collagenase type IV as determined by zymography (data not shown).
(§3) For inhibition studies, 5×10^5 cells are plated in 200 μl of DMEM+0.1% BSA+the inhibitor (or appropriate solvent control) into the upper chamber of the Transwell. […]

[2] = system: MDA-MB-231 cells (human breast carcinoma); experiment: as above; type: cell-based; settings: preliminary screen
Method: as §1, §2, §3

[3] = target: T1, E. coli recombinant human 72 kD collagenase type IV (MMP-2), pAPMA activated (Homo sapiens, UniProt P08253); experiment: gelatinase assay (3H-gelatin degradation), Example 9; type: biochemical; settings: 100 ng activated enzyme, 4 hrs preincubation with inhibitor at 37° C., 3H-gelatin substrate; read-out: IC50, inhibition of collagenase type IV gelatinase activity
T1 construct: made in house; host or cells: E. coli
T1 sequence (P08253 110-660): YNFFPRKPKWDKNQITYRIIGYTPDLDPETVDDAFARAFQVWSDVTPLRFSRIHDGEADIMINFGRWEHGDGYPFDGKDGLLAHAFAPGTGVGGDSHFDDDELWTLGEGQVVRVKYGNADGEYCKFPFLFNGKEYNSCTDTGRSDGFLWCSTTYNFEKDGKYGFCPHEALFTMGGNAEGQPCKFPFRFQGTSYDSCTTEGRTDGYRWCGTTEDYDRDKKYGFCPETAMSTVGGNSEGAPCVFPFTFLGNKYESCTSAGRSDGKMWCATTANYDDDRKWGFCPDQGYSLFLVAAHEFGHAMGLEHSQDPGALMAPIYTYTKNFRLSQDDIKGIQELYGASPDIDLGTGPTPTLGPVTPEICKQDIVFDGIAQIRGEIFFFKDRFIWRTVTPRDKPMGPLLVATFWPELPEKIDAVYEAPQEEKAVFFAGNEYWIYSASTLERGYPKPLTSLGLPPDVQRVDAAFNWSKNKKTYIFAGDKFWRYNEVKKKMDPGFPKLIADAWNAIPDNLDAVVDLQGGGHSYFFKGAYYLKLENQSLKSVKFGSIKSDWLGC
Text: Type IV collagenases are highly efficient in digesting gelatin. Inhibition of the gelatinase activity of human recombinant collagenase type IV was used as an initial assay for testing the bis(dioxopiperazine)s. The recombinant 72 kD collagenase IV used in the gelatinase assays was made in E. coli from a cDNA insert obtained from Dr. William Stetler-Stevenson (NCI). The protein runs at 72 kD on SDS-PAGE, has gelatinolytic activity in zymogram, is activated by pAPMA, is precipitated by a monoclonal anti-peptide antibody to the pro-region of the 72 kD enzyme, and is inhibited by TIMP-2. Rat tail ^3 H-collagen I (Dupont-NEN) is denatured to become gelatin by heating at 60° C. for 20 min. E. coli recombinant human 72 kD collagenase type IV is activated by incubation with 1 mM pAPMA for 1 hr. at 37° C. 100 ng of activated enzyme is added to each tube containing 50 mM Tris-HCl pH 7.5, 5 mM CaCl2 and 0.005% Brij-35 and pre-incubated with inhibitor or solvent control for 4 hrs. at 37° C. in a total of 25 μl. 10,000 cpm of ^3 H-gelatin substrate in 30 μl is added (final volume of 55 μl per sample) and the reaction mixture is incubated at 37° C. for 2 to 16 hrs. […] Enzyme activity is calculated from the radioactivity in the supernatant and activity of the compounds expressed as percent solvent control.

B16-F10 melanoma cells = settings: pretreatment of B16-F10 cells at 2, 20 and 100 μM; cited from earlier work
V-79A fibroblasts = settings: tissue culture; cited from earlier work
metastases = settings: in vivo; cited from earlier work

IC50 [3]: 45 µM
Structure (SMILES): CC1(C)O[C@H]2C[C@@H](N3CC(=O)NC(=O)C3)[C@H](N3CC(=O)NC(=O)C3)C[C@H]2O1 (relative stereo) [Compound 78]
inhibition at 290 µM ([1]; Homo sapiens, HT-1080, at 290 μM, 6 hour assay, read-out: maximum inhibition of invasion): 25% | inhibition of invasion ([1]; preliminary screen): inhibit invasion | effect on cell motility ([1]; preliminary screen, no matrigel): without inhibiting cell motility | inhibition of invasion [2]: inhibit invasion | effect on cell motility ([2]; no matrigel): without inhibiting cell motility

Structure (SMILES): O=C1CN2CCN3CC(=O)NC(=O)[C@H]3[C@@H]2C(=O)N1 (relative stereo) [trans-20]
metastasis to the lungs after pretreatment of the cells (B16-F10 melanoma cells): significantly reduces the metastasis

Structure (SMILES): O=C1CN2CCN3CC(=O)NC(=O)[C@H]3[C@H]2C(=O)N1 [cis-21]
metastasis to the lungs after pretreatment of the cells (B16-F10 melanoma cells): ineffective

Structure (SMILES): O=C1CN([C@@H]2C[C@H]2N2CC(=O)NC(=O)C2)CC(=O)N1 (relative stereo) [trans-15]
cytotoxic activity (V-79A fibroblasts): inactive | effect on development of metastases (metastases): stimulates

Structure (SMILES): O=C1CN([C@@H]2C[C@@H]2N2CC(=O)NC(=O)C2)CC(=O)N1 [cis-16, cis-4,4'-(cyclopropanediyl) bis(2,6)dioxopiperazine]
effect on development of metastases (metastases): inhibits
